Reference: publication PMC4774911, “Biochemical Screening of Five Protein Kinases from Plasmodium falciparum against 14,000 Cell-Active Compounds” (PLoS ONE, 2016)
Several values for one entry are separate records, joined by “and”; a condition that tells them apart may be missing. Identical values can stand only once.

What was measured:
Assay in all cases: biochemical
Parameters in all cases: endogenous in cells; host or cells: K562 cell extract; species or system K562 (extract); replicate k of n = 2 (each experiment ID is one independent experiment; two experiment IDs per compound)
Settings in all cases: read-out: KDapp
AURKA = target: T1, AURKA (Homo sapiens, UniProt O14965)
T1 sequence (O14965 1-403): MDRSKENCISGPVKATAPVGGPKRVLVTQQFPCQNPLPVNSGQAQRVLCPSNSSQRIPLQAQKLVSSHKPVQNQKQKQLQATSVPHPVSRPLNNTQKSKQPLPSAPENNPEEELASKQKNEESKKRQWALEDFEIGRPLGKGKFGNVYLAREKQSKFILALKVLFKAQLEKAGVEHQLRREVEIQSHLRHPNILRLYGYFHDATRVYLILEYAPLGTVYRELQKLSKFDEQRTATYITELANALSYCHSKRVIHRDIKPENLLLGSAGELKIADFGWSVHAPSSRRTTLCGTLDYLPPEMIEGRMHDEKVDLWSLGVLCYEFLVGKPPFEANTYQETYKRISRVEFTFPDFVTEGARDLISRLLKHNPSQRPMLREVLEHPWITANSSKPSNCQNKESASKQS

BTK = BTK (Homo sapiens, UniProt Q06187)
CAMK2G = CAMK2G (Homo sapiens, UniProt Q13555)
KIT = KIT (Homo sapiens, UniProt P10721)
NTRK1 = NTRK1 (Homo sapiens, UniProt P04629)
PHKG2 = target: T2, PHKG2 (Homo sapiens, UniProt P15735)
T2 sequence (P15735 1-406): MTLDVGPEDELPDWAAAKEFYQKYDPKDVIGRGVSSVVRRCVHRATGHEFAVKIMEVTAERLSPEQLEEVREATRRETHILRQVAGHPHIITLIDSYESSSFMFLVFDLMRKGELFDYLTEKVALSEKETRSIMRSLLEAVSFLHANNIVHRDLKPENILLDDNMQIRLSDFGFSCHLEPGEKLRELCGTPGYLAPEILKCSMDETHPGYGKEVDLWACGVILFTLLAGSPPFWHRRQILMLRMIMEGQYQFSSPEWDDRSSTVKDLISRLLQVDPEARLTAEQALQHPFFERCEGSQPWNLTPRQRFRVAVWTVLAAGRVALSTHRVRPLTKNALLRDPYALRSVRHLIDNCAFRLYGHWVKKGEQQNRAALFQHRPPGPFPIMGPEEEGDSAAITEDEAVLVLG

RPS6KA3 = RPS6KA3 (Homo sapiens, UniProt P51812)
RPS6KA5 = RPS6KA5 (Homo sapiens, UniProt O75582)
MAPKAPK5 = target: T3, MAPKAPK5 (Homo sapiens, UniProt Q8IW41)
T3 sequence (Q8IW41 1-473): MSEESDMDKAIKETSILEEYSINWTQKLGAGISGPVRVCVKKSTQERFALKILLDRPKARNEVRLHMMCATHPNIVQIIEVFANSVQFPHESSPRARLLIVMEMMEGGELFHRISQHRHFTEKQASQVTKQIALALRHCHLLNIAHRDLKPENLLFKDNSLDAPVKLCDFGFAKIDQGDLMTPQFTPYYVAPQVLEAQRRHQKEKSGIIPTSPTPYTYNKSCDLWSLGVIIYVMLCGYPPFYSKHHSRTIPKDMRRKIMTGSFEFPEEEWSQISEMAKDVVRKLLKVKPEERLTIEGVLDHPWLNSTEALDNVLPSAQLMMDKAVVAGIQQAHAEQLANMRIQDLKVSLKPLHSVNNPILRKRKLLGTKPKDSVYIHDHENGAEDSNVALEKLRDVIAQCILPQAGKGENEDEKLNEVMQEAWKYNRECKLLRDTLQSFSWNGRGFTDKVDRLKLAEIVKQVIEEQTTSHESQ

Sequence of BTK (Q06187 whole entry): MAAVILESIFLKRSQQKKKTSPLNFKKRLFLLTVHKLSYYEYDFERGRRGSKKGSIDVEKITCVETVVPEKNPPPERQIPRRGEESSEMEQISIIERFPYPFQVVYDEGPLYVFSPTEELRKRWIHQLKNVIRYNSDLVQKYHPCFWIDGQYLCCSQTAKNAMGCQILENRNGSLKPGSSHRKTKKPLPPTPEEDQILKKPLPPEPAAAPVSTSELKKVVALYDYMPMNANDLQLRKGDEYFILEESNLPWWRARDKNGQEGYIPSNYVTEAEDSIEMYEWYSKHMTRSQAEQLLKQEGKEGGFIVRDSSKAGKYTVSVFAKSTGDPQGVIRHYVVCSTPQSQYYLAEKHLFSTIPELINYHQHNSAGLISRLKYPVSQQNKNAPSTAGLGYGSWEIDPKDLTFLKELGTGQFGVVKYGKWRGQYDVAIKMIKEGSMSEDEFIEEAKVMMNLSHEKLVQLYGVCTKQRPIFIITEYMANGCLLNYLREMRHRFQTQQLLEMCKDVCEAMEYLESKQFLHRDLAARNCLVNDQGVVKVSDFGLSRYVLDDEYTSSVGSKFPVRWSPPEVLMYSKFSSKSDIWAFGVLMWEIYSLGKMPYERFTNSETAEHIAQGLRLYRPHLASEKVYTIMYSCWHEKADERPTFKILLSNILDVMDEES
Sequence of NTRK1 (P04629 whole entry): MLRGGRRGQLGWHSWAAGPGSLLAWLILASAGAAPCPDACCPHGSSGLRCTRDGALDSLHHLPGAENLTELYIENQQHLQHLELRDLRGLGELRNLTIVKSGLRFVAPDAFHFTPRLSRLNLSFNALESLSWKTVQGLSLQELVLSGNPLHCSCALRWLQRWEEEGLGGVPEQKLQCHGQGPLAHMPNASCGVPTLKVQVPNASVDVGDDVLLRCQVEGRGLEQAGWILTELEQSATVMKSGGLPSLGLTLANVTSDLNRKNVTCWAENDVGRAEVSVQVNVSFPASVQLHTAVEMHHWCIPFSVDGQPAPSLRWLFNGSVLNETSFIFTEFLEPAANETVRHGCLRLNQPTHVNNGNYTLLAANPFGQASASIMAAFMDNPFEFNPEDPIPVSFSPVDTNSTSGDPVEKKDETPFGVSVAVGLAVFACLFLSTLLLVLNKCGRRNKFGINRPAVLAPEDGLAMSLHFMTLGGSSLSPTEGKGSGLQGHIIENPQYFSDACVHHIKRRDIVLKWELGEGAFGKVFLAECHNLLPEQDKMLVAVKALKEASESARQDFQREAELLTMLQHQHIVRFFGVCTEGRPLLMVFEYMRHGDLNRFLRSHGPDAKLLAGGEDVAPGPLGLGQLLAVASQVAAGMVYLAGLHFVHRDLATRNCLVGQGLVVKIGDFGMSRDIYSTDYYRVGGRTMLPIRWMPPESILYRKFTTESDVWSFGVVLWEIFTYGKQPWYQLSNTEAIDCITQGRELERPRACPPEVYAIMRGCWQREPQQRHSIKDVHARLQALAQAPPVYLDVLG
Sequence of CAMK2G (Q13555 whole entry): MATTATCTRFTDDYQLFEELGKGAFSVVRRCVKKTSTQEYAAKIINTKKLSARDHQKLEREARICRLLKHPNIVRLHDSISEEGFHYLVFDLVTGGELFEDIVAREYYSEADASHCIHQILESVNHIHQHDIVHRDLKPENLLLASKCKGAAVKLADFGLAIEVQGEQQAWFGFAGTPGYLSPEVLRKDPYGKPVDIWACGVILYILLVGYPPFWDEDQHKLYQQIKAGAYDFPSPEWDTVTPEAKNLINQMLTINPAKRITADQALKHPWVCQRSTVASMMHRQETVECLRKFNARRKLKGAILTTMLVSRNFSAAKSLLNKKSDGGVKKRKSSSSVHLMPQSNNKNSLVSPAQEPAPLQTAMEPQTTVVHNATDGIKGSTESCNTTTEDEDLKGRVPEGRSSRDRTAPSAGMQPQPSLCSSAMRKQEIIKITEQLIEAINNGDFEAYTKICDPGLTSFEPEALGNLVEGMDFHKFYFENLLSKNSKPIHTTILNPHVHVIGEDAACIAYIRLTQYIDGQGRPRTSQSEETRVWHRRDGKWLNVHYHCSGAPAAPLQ
Sequence of RPS6KA5 (O75582 whole entry): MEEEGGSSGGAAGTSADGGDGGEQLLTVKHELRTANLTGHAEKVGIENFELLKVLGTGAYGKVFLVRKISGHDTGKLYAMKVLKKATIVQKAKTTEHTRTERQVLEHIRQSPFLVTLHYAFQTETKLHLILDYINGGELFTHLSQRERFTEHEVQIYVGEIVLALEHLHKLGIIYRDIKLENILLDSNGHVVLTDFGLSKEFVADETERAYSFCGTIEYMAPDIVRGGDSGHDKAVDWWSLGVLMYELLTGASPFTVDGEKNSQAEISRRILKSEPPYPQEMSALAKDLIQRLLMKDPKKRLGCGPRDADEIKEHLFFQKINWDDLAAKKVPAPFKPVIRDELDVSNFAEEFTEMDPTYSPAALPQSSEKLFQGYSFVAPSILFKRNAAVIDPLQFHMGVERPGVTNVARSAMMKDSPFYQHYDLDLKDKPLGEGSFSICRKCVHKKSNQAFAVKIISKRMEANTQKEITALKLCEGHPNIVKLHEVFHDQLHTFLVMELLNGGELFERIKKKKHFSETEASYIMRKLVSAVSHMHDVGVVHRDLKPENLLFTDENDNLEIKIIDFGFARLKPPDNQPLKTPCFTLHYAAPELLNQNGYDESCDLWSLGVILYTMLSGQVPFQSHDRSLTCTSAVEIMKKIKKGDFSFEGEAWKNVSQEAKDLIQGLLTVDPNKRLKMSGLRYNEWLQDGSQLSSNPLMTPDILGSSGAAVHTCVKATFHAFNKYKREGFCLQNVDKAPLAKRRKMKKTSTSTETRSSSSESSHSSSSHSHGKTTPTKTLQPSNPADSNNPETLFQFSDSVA
Sequence of RPS6KA3 (P51812 whole entry): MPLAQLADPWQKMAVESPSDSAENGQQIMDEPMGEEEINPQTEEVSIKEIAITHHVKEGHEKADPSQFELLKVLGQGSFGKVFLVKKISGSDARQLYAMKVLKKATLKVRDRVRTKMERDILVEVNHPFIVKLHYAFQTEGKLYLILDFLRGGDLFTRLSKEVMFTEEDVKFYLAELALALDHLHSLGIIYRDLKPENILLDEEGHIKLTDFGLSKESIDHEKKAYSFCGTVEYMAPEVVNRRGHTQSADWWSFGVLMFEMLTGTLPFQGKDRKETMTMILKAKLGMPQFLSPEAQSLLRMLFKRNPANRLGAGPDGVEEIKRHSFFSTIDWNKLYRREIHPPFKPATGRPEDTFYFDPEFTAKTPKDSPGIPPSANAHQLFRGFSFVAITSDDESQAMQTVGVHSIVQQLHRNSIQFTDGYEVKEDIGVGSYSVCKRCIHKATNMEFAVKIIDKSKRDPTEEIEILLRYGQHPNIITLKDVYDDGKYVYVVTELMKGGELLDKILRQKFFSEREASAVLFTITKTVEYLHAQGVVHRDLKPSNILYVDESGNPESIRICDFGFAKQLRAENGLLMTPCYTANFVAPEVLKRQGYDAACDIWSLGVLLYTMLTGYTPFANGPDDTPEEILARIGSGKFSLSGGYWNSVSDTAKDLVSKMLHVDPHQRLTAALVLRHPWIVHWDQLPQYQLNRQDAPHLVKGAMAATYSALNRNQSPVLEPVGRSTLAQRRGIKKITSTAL
Sequence of KIT (P10721 whole entry): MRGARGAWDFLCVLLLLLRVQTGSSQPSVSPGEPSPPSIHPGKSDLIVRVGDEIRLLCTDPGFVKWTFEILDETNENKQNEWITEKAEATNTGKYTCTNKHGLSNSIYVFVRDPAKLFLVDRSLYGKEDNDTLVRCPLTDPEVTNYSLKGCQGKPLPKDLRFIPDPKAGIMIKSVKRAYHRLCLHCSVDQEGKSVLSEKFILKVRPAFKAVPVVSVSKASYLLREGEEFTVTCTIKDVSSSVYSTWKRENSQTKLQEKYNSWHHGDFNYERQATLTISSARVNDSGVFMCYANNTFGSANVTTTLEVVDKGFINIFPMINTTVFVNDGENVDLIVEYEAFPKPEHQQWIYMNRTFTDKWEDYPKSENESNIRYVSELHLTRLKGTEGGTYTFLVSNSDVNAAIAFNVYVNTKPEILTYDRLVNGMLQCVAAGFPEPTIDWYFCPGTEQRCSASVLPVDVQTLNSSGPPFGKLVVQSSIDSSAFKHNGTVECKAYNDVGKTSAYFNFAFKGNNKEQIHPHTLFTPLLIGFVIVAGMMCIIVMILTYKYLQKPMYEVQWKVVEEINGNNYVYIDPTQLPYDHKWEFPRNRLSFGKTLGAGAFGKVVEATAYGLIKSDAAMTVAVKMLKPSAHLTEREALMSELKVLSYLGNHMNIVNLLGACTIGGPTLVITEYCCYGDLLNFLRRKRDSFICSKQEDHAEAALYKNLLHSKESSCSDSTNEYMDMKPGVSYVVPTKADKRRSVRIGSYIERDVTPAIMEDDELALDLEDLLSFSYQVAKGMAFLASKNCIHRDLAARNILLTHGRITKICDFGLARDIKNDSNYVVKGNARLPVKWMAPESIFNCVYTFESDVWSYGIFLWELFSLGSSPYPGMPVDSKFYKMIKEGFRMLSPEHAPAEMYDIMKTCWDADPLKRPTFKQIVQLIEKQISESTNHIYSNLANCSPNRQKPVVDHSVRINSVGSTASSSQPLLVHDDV

Structure (SMILES)	Kd (AURKA) [nM]	Kd (BTK)	Kd (CAMK2G)	Kd (KIT) [nM]	Kd (NTRK1)	Kd (PHKG2) [nM]	Kd (RPS6KA3)	Kd (RPS6KA5)	Kd (MAPKAPK5) [nM]
CN1CCN(c2ccc(Nc3ncc(C#N)c(Nc4ccccc4C(N)=O)n3)cc2)CC1.Cl [TCMDC-134116]	12.3	207 nM and 231 nM	340 nM and 294 nM	1100	1030 nM and 701 nM	2250	60.8 nM and 82 nM	393 nM and 590 nM	–
CN(C)CC(O)COc1ccc(Nc2ncc([N+](=O)[O-])c(Nc3ccccc3O)n2)cc1.O=C(O)C(F)(F)F (stereo not drawn) [TCMDC-141399]	–	–	–	–	–	–	–	–	292
